Experimental data taken from PubChem BioAssay (NCI).
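Following 48 hours of exposure in 96-well plates, responses at five concentrations were used to interpolate endpoints linearly. GI50 is the concentration that inhibits growth by half. TGI is the concentration that stops growth completely.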

What was measured:
Assay in all cases: growth of human tumour cells (NCI), 48 h
786-0 renal = system: 786-0 renal
A498 renal = system: A498 renal
A549 NSCLC = system: A549 NSCLC
ACHN renal = system: ACHN renal
BT-549 breast = system: BT-549 breast
CAKI-1 renal = system: CAKI-1 renal
CCRF-CEM leukemia = system: CCRF-CEM leukemia
COLO 205 colon = system: COLO 205 colon
DU-145 prostate = system: DU-145 prostate
EKVX NSCLC = system: EKVX NSCLC
HCC-2998 colon = system: HCC-2998 colon
HCT-116 colon = system: HCT-116 colon
HCT-15 colon = system: HCT-15 colon
HL-60(TB) leukemia = system: HL-60(TB) leukemia
HOP-62 NSCLC = system: HOP-62 NSCLC
HOP-92 NSCLC = system: HOP-92 NSCLC
HS 578T breast = system: HS 578T breast
HT29 colon = system: HT29 colon
IGROV1 ovarian = system: IGROV1 ovarian
K-562 leukemia = system: K-562 leukemia
KM12 colon = system: KM12 colon
LOX IMVI melanoma = system: LOX IMVI melanoma
M14 melanoma = system: M14 melanoma
MALME-3M melanoma = system: MALME-3M melanoma
MCF7 breast = system: MCF7 breast
MDA-MB-231 breast = system: MDA-MB-231 breast
MDA-MB-435 = system: MDA-MB-435
MOLT-4 leukemia = system: MOLT-4 leukemia
NCI-H226 lung = system: NCI-H226 lung
NCI-H23 lung = system: NCI-H23 lung
NCI-H460 lung = system: NCI-H460 lung
NCI-H522 lung = system: NCI-H522 lung
NCI/ADR-RES ovarian = system: NCI/ADR-RES ovarian
OVCAR-4 ovarian = system: OVCAR-4 ovarian
OVCAR-5 ovarian = system: OVCAR-5 ovarian
OVCAR-8 ovarian = system: OVCAR-8 ovarian
PC-3 prostate = system: PC-3 prostate
RPMI-8226 leukemia = system: RPMI-8226 leukemia
RXF 393 renal = system: RXF 393 renal
SF-268 CNS = system: SF-268 CNS
SF-295 CNS = system: SF-295 CNS
SF-539 CNS = system: SF-539 CNS
SK-MEL-2 melanoma = system: SK-MEL-2 melanoma
SK-MEL-28 melanoma = system: SK-MEL-28 melanoma
SK-MEL-5 melanoma = system: SK-MEL-5 melanoma
SK-OV-3 ovarian = system: SK-OV-3 ovarian
SN12C renal = system: SN12C renal
SNB-19 CNS = system: SNB-19 CNS
SNB-75 CNS = system: SNB-75 CNS
SR leukemia = system: SR leukemia
SW-620 colon = system: SW-620 colon
T-47D breast = system: T-47D breast
TK-10 renal = system: TK-10 renal
U251 CNS = system: U251 CNS
UACC-257 melanoma = system: UACC-257 melanoma
UACC-62 melanoma = system: UACC-62 melanoma
UO-31 renal = system: UO-31 renal

Q: Which results are given for `Oc1ccc(CSc2nnc(-c3ccncc3)n2-c2ccccc2)c2cccnc12`?
A: GI50 (786-0 renal): 3400 nM; TGI (786-0 renal): 20000 nM; GI50 (A498 renal): 2600 nM; TGI (A498 renal): 8640 nM; GI50 (A549 NSCLC): 1750 nM; TGI (A549 NSCLC): > 100000 nM; GI50 (ACHN renal): 794 nM; TGI (ACHN renal): > 28400 nM; GI50 (BT-549 breast): 596 nM; TGI (BT-549 breast): > 63100 nM; GI50 (CAKI-1 renal): 1610 nM; TGI (CAKI-1 renal): > 100000 nM; GI50 (CCRF-CEM leukemia): 513 nM; TGI (CCRF-CEM leukemia): > 100000 nM; GI50 (COLO 205 colon): 19200 nM; TGI (COLO 205 colon): > 80400 nM; GI50 (DU-145 prostate): 686 nM; TGI (DU-145 prostate): > 100000 nM; GI50 (EKVX NSCLC): 1400 nM; TGI (EKVX NSCLC): 21100 nM; GI50 (HCC-2998 colon): 3140 nM; TGI (HCC-2998 colon): > 100000 nM; GI50 (HCT-116 colon): 376 nM; TGI (HCT-116 colon): > 100000 nM; GI50 (HCT-15 colon): 363 nM; TGI (HCT-15 colon): > 100000 nM; GI50 (HL-60(TB) leukemia): 677 nM; TGI (HL-60(TB) leukemia): 5320 nM; GI50 (HOP-62 NSCLC): 773 nM; TGI (HOP-62 NSCLC): 16300 nM; GI50 (HOP-92 NSCLC): 192 nM; TGI (HOP-92 NSCLC): 628 nM; GI50 (HS 578T breast): 473 nM; TGI (HS 578T breast): > 84800 nM; GI50 (HT29 colon): 3870 nM; TGI (HT29 colon): > 100000 nM; GI50 (IGROV1 ovarian): 1040 nM; TGI (IGROV1 ovarian): > 57000 nM; GI50 (K-562 leukemia): 363 nM; TGI (K-562 leukemia): > 100000 nM; GI50 (KM12 colon): 2270 nM; TGI (KM12 colon): > 100000 nM; GI50 (LOX IMVI melanoma): 471 nM; TGI (LOX IMVI melanoma): > 27900 nM; GI50 (M14 melanoma): 765 nM; TGI (M14 melanoma): 5960 nM; GI50 (MALME-3M melanoma): 1050 nM; TGI (MALME-3M melanoma): > 81500 nM; GI50 (MCF7 breast): 357 nM; TGI (MCF7 breast): > 100000 nM; GI50 (MDA-MB-231 breast): 1260 nM; TGI (MDA-MB-231 breast): > 55600 nM; GI50 (MDA-MB-435): 462 nM; TGI (MDA-MB-435): > 100000 nM; GI50 (MOLT-4 leukemia): 720 nM; TGI (MOLT-4 leukemia): > 100000 nM; GI50 (NCI-H226 lung): 3490 nM; TGI (NCI-H226 lung): > 100000 nM; GI50 (NCI-H23 lung): 433 nM; TGI (NCI-H23 lung): > 46500 nM; GI50 (NCI-H460 lung): 375 nM; TGI (NCI-H460 lung): 14400 nM; GI50 (NCI-H522 lung): 369 nM; TGI (NCI-H522 lung): > 100000 nM; GI50 (NCI/ADR-RES ovarian): 309 nM; TGI (NCI/ADR-RES ovarian): > 26400 nM; GI50 (OVCAR-4 ovarian): 3180 nM; TGI (OVCAR-4 ovarian): > 100000 nM; GI50 (OVCAR-5 ovarian): 3690 nM; TGI (OVCAR-5 ovarian): > 100000 nM; GI50 (OVCAR-8 ovarian): 493 nM; TGI (OVCAR-8 ovarian): > 100000 nM; GI50 (PC-3 prostate): 735 nM; TGI (PC-3 prostate): > 100000 nM; GI50 (RPMI-8226 leukemia): 391 nM; TGI (RPMI-8226 leukemia): > 100000 nM; GI50 (RXF 393 renal): 2830 nM; TGI (RXF 393 renal): 70500 nM; GI50 (SF-268 CNS): 804 nM; TGI (SF-268 CNS): > 100000 nM; GI50 (SF-295 CNS): 1140 nM; TGI (SF-295 CNS): > 38500 nM; GI50 (SF-539 CNS): 769 nM; TGI (SF-539 CNS): 31300 nM; GI50 (SK-MEL-2 melanoma): 628 nM; TGI (SK-MEL-2 melanoma): > 100000 nM; GI50 (SK-MEL-28 melanoma): 1790 nM; TGI (SK-MEL-28 melanoma): > 100000 nM; GI50 (SK-MEL-5 melanoma): 761 nM; TGI (SK-MEL-5 melanoma): 5600 nM; GI50 (SK-OV-3 ovarian): 2320 nM; TGI (SK-OV-3 ovarian): > 29400 nM; GI50 (SN12C renal): 385 nM; TGI (SN12C renal): > 100000 nM; GI50 (SNB-19 CNS): 453 nM; TGI (SNB-19 CNS): > 89200 nM; GI50 (SNB-75 CNS): 642 nM; TGI (SNB-75 CNS): 43000 nM; GI50 (SR leukemia): 396 nM; TGI (SR leukemia): > 100000 nM; GI50 (SW-620 colon): 542 nM; TGI (SW-620 colon): > 100000 nM; GI50 (T-47D breast): 1440 nM; TGI (T-47D breast): > 45400 nM; GI50 (TK-10 renal): 3250 nM; TGI (TK-10 renal): > 100000 nM; GI50 (U251 CNS): 422 nM; TGI (U251 CNS): 63600 nM; GI50 (UACC-257 melanoma): 2400 nM; TGI (UACC-257 melanoma): > 31300 nM; GI50 (UACC-62 melanoma): 1750 nM; TGI (UACC-62 melanoma): 7520 nM; GI50 (UO-31 renal): 451 nM; TGI (UO-31 renal): 12800 nM
